Results: patent US20240366589A1, “NHE3-BINDING COMPOUNDS AND METHODS FOR INHIBITING PHOSPHATE TRANSPORT” (Ardelyx, Inc., priority 2013, published 2024)

Assays:
Rat NHE3 = biological target: T1, Rat NHE3 (Rattus norvegicus, UniProt P26433); test: Cell-based NHE3 activity under prompt conditions (OK cells, BCECF pH recovery), rat NHE3; details: prompt conditions
T1 construct: expressed in transfected cells; host or cells: Opossum kidney (OK) cells (ATCC), electroporation
Method: (§1) Cell-based activity under Prompt Conditions. Rat or human NHE3-mediated Na^+-dependent H antiport was measured using a modification of the pH sensitive dye method originally reported by Paradiso (PNAS USA. 81:7436-7440, 1984). Opossum kidney (OK) cells were obtained from the ATCC and propagated per their instructions. The rat NHE3 gene (GenBank M85300) or the human NHE3 gene (GenBank NM_004174.1) was introduced into OK cells via electroporation, and cells were seeded into 96 well plates and grown overnight. Medium was aspirated from the wells, cells were washed twice with NaCl-HEPES buffer (100 mM NaCl, 50 mM HEPES, 10 mM glucose, 5 mM KCl, 2 mM CaCl2, 1 mM MgCl2, pH 7.4), then incubated for 30 min at room temperature with NH4Cl-HEPES buffer (20 mM NH4Cl, 80 mM NaCl, 50 mM HEPES, 5 mM KCl, 2 mM CaCl2, 1 mM MgCl2, pH 7.4) containing 5 μM bis(acetoxymethyl) 3,3′-(3′,6′-bis(acetoxymethoxy)-5-((acetoxymethoxy)carbonyl)-3-oxo-3H-spiro[isobenzofuran-1,9′-xanthene]-2′,7′-diyl)dipropanoate (BCECF-AM).
(§2) Cells were washed twice with Ammonium free, Na^+-free HEPES (100 mM choline, 50 mM HEPES, 10 mM glucose, 5 mM KCl, 2 mM CaCl2, 1 mM MgCl2, pH 7.4) and incubated in the same buffer for 10 minutes at room temperature to lower intracellular pH. […] Initial rates were plotted as the average 2 or more replicates, and pIC50 values were estimated using GraphPad Prism.
(§3) Cell-based activity of NHE3 Activity under ‘Prompt’ Conditions. This assay was performed as described in Example 1 (supra).

[1] = test system: absorption of sodium from the intestinal lumen; test: Inhibition of intestinal sodium absorption: urinary sodium (uNa) 16 h after single oral dose in rats; assay type: in vivo, rat; details: oral gavage, 16 h post-dose
Method: (§4) Inhibition of intestinal sodium and phosphate absorption. Urinary sodium concentration and fecal form were measured to assess the ability of selected example compounds to inhibit the absorption of sodium from the intestinal lumen. Eight-week old Sprague-Dawley rats were purchased from Charles River Laboratories (Hollister, CA), were housed 2 per cage, and acclimated for at least 3 days before study initiation. Animals were fed Harlan Teklad Global 2018 rodent chow (Indianapolis, IN) and water ad libitum throughout the study and maintained in a standard light/dark cycle of 6 AM to 6 PM. On the day of the study, between 4 PM and 5 PM, a group of rats (n=6) were dosed via oral gavage with test compound, or a pharmaceutically acceptable salt thereof, or vehicle (water) at a volume of 10 mL/kg.
(§5) After dose administration animals were placed in individual metabolic cages where they were also fed the same chow in meal form and watered ad libitum. At 16 h post-dose, the urine samples were collected and fecal form was assessed by two independent observations. Fecal forms were scored according to a common scale associated with increasing fecal water to the wettest observation in the cage's collection funnel (1, normal pellet; 2, pellet adhering to sides of collection funnel due to moisture; 3, loss of normal pellet shape; 4, complete loss of shape with a blotting pattern; 5, liquid fecal streams evident). A rat's fecal form score (FFS) was determined by averaging both observational scores for all rats within a group (n=6). The vehicle group average was 1.
For urine samples, the volumes were determined gravimetrically and centrifuged at 3,600×g. The supernatants were diluted 100-fold in deionized Milli-Q water then filtered through a 0.2 μm GHP Pall AcroPrep filter plate (Pall Life Sciences, Ann Arbor, MI) prior to analysis by ion chromatography. Ten microliters of each filtered extract was injected onto a Dionex ICS-3000 ion chromatograph system (Dionex, Sunnyvale, CA). Cations were separated by an isocratic method using 25 mM methanesulfonic acid as the eluent on an IonPac CS12A 2 mm i.d.×250 mm, 8 μm particle size cation exchange column (Dionex). Sodium was quantified using standards prepared from a cation standard mix containing Li^+, Na^+, NH4^+, K^+, Mg^2+, and Ca^2+ (Dionex). The mean mass of sodium urinated for every group in the 16 h period was determined with the vehicle group usually urinating approximately 21 mg sodium. The urine Na (uNa) for rats in the test groups were expressed as a percentage of the vehicle mean and the means were compared to that of the vehicle group by utilizing a one-way analysis of variance coupled with a Dunnett's post hoc test.
Further experiments were performed to test the compounds under the persistent and prompt conditions described above, and to test their effects on urinary excretion of sodium in rats. The latter was performed by orally dosing the compounds in rats (single dose) and measuring urinary Na excretion (as a % of vehicle). The results are indicated as percentage of urinary sodium (UNa %); low values indicate relatively active compounds.

Human NHE3 = biological target: T2, Human NHE3 (Homo sapiens, UniProt P48764); test: Cell-based NHE3 activity under prompt conditions (OK cells, BCECF pH recovery), human NHE3; details: prompt conditions
T2 construct: expressed in transfected cells; host or cells: Opossum kidney (OK) cells (ATCC), electroporation
T2 sequence (P48764 26-834): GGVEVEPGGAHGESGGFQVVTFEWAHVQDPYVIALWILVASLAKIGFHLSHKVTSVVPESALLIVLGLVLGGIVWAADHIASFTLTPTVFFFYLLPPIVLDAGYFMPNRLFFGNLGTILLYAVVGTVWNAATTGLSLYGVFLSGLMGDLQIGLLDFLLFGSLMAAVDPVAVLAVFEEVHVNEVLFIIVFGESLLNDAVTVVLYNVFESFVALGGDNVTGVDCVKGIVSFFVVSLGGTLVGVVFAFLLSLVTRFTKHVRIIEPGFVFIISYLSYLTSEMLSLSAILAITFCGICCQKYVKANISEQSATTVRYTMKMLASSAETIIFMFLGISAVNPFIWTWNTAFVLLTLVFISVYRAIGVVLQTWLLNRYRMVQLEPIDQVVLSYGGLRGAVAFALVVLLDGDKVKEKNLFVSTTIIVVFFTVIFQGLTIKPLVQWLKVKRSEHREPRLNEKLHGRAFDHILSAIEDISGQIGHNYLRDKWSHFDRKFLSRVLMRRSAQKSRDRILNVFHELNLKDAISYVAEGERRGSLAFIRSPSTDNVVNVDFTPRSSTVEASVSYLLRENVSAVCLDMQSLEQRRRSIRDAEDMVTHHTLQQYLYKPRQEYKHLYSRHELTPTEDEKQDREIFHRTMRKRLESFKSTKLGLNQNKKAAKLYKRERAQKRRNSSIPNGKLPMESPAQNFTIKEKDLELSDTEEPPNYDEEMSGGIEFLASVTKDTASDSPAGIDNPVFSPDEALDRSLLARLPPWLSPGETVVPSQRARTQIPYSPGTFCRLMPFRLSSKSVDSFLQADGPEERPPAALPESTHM
Method: as §1, §2, §3

[2] = test system: absorption of sodium from the intestinal lumen; test: Fecal form score (FFS) 16 h after oral dose in rats; assay type: in vivo, rat; details: oral gavage, 16 h post-dose, scale 1-5
Method: as §4, §5

[3] = test system: phosphorus and calcium levels in the urine of rats; test: Urinary excretion of phosphate and calcium in rats (16 h overnight urine); assay type: in vivo, rat; details: rats, oral gavage, 16 h post-dose

T1 sequence (P26433 29-831): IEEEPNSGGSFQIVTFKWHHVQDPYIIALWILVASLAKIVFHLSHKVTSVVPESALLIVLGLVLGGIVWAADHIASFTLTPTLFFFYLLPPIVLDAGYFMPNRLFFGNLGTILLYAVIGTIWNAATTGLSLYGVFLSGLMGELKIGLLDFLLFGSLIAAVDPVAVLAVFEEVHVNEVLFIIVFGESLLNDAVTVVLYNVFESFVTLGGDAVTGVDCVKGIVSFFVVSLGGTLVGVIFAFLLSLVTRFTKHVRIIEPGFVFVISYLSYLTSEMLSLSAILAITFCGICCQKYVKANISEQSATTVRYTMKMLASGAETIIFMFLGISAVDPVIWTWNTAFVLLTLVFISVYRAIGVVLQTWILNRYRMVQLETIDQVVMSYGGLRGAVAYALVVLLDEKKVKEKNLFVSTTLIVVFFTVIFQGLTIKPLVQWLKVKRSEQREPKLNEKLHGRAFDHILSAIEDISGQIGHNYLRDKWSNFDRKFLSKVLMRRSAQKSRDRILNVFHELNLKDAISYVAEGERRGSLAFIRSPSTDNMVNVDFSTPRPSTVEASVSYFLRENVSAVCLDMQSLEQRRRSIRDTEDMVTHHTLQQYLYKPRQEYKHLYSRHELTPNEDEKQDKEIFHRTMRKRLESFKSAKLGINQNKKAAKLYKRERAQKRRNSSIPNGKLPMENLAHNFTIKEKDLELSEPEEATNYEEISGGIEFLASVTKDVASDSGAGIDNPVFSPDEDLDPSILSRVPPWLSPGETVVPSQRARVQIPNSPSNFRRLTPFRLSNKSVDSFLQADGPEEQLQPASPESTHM

Row | SMILES | IC50 (Rat NHE3; read-out: Prompt Rat NHE3 pIC50 (converted)) [nM] | Urine Na % of control ([1]; dose 1 mg/kg) [%] | Prompt Human NHE3 pIC50 (Human NHE3) | Fecal Form Score average ([2]; dose 1 mg/kg) | Urine P % of control ([3]; dose 1 mg/kg) [%] | Prompt Rat NHE3 pIC50 (Rat NHE3) | Urine Na % of control ([1]; dose 10 mg/kg) [%] | Fecal Form Score average ([2]; dose 10 mg/kg) | Urine P % of control ([3]; dose 10 mg/kg) [%] | Urine Na % of control ([1]; dose 3 mg/kg) [%] | Fecal Form Score average ([2]; dose 3 mg/kg) | Urine P % of control ([3]; dose 3 mg/kg) [%] | Urine Na % of control ([1]; dose 30 mg/kg) [%] | Fecal Form Score average ([2]; dose 30 mg/kg) | Urine P % of control ([3]; dose 30 mg/kg) [%]
1 | CN1Cc2c(Cl)cc(Cl)cc2C(c2cccc(NC(=O)[C@H](O)[C@@H](O)[C@H](O)[C@H](O)CO)c2)C1 (stereo in doubt) [compound 3] | 39.8 | 41 | 7.60 | 1 | 57 | – | – | – | – | – | – | – | – | – | –
2 | CN1Cc2c(Cl)cc(Cl)cc2C(c2cccc(S(=O)(=O)NCCOCCOCCOCCNC(=O)NCCN(CCNC(=O)NCCOCCOCCOCCNS(=O)(=O)c3cccc([C@@H]4CN(C)Cc5c(Cl)cc(Cl)cc54)c3)CCNC(=O)NCCOCCOCCOCCNS(=O)(=O)c3cccc([C@@H]4CN(C)Cc5c(Cl)cc(Cl)cc54)c3)c2)C1 (stereo in doubt) [compound 59] | – | – | 7.30 | – | – | 6.90 | 18 | 2 | 45 | – | – | – | – | – | –
3 | CN1Cc2c(Cl)cc(Cl)cc2C(c2cccc(S(=O)(=O)NCCOCCOCCOCCNC(=O)CN(CCN(CCN(CC(=O)NCCOCCOCCOCCNS(=O)(=O)c3cccc([C@@H]4CN(C)Cc5c(Cl)cc(Cl)cc54)c3)CC(=O)NCCOCCOCCOCCNS(=O)(=O)c3cccc([C@@H]4CN(C)Cc5c(Cl)cc(Cl)cc54)c3)CC(=O)NCCOCCOCCOCCNS(=O)(=O)c3cccc([C@@H]4CN(C)Cc5c(Cl)cc(Cl)cc54)c3)CC(=O)NCCOCCOCCOCCNS(=O)(=O)c3cccc([C@@H]4CN(C)Cc5c(Cl)cc(Cl)cc54)c3)c2)C1 (stereo in doubt) [compound 75] | – | – | 6.90 | – | – | 6.30 | 81 | 1 | 55 | – | – | – | – | – | –
4 | CN1Cc2c(Cl)cc(Cl)cc2C(c2cccc(S(=O)(=O)NCCOCCOCCOCCNC(=O)CCC(CCC(=O)NCCOCCOCCOCCNS(=O)(=O)c3cccc([C@@H]4CN(C)Cc5c(Cl)cc(Cl)cc54)c3)(CCC(=O)NCCOCCOCCOCCNS(=O)(=O)c3cccc([C@@H]4CN(C)Cc5c(Cl)cc(Cl)cc54)c3)NCc3ccc(-c4ccc(Cl)cc4)cc3)c2)C1 (stereo in doubt) [compound 114] | – | – | <5.00 | – | – | <5.00 | 45 | 3 | 100 | – | – | – | – | – | –
5 | CN1CCN(C(=O)NC(CCC(=O)NCCOCCOCCNS(=O)(=O)c2cccc(C3CN(C)Cc4c(Cl)cc(Cl)cc43)c2)(CCC(=O)NCCOCCOCCNS(=O)(=O)c2cccc([C@@H]3CN(C)Cc4c(Cl)cc(Cl)cc43)c2)CCC(=O)NCCOCCOCCNS(=O)(=O)c2cccc([C@@H]3CN(C)Cc4c(Cl)cc(Cl)cc43)c2)CC1 (stereo in doubt) [compound 153] | – | – | 7.50 | – | – | 6.90 | – | – | – | 28 | 3 | 84 | – | – | –
6 | COCCNS(=O)(=O)c1cccc(C2CN(C)Cc3c(Cl)cc(Cl)cc32)c1 (stereo not drawn) [compound 2] | – | – | 6.50 | – | – | 6.70 | 115 | 1 | 80 | – | – | – | – | – | –
7 | C/C(=C\c1cc(F)c(Oc2ccc(S(=O)(=O)NCCOCCOCCOCCN)cc2)c(F)c1)C(=O)N=C(N)N [compound 4] | – | – | 6.80 | – | – | 6.90 | 84 | 1 | 106 | – | – | – | – | – | –
8 | C/C(=C\c1cc(F)c(Oc2ccc(S(=O)(=O)NCCOCCOCCOCCNC(=O)[C@H](O)[C@@H](O)C(=O)NCCOCCOCCOCCNS(=O)(=O)c3ccc(Oc4c(F)cc(/C=C(\C)C(=O)N=C(N)N)cc4F)cc3)cc2)c(F)c1)C(=O)N=C(N)N [compound 5] | – | – | 7.85 | – | – | 6.90 | 51 | 1 | 65 | – | – | – | 23 | 2 | 105
9 | N=C(N)Nc1nc(-c2cccc(S(=O)(=O)NCCOCCOCCN)c2)c2cc(Cl)ccc2n1 [compound 7] | – | – | 7.20 | – | – | 6.30 | 76 | 1 | 90 | – | – | – | – | – | –
